This note sets out measurements from PubChem BioAssay AID504367 (Southern Research Specialized Biocontainment Screening …, 2011).

Molecules are shown by their SMILES. Calls of active or inactive are those of the source.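 Rule for the calls: active = fusion inhibition of 50% or more at any tested concentration; inactive = the rest.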

The assay has as its system HeLa-CD4-LTR-beta-gal/HL2/3 cell fusion, beta-gal luminescence. In words: inhibitors of X4 HIV-1 Env-mediated cell fusion, dose response, HeLa-CD4-LTR-beta-gal/HL2/3 cells, beta-gal luminescence (AID 504367).
Regarding `O=C(O)c1ccc(C[n+]2c(-c3ccccc3)csc2Nc2ccccc2)cc1`, the IC50 was > 100 µM (inactive).
In the case of `O=C(O)CCCN1C(=O)/C(=C/c2cc3ccccc3o2)SC1=S`, the IC50 was > 100 µM (inactive).
`Cc1c2c(=O)n(-c3nc4ccccc4s3)nc-2cc(O)n1Cc1ccc(F)cc1`: the concentration for half-maximal inhibition (IC50) is 55.3 µM.
For the molecule `CS(=O)(=O)C1=NSC2=NC(=O)/C(=C\c3cccn3-c3ccc(Cl)cc3)C(=N)N21`, the IC50 was 67.7 µM.
On to `Cc1c2c(=O)n(-c3nc4ccccc4s3)nc-2cc(O)n1CCc1ccc(O)cc1`, for which the IC50 was 43.6 µM.
In the case of `CCc1ccc(-c2ccc(/C=C3\SC(=S)N(CCCC(=O)O)C3=O)o2)cc1`, the IC50 is 2.47 µM.
As to `Cc1ccc(-n2cccc2/C=C2/C(=N)N3C(=NC2=O)SN=C3S(C)(=O)=O)cc1`, the half-maximal inhibitory concentration (IC50) was 39.9 µM.
As to `O=C(O)c1ccc(C[n+]2c(-c3ccc([N+](=O)[O-])cc3)csc2Nc2ccccc2)cc1`, the IC50 was > 100 µM (inactive).
Consider `CCOC(=O)C1=C(C)N=c2sc(=Cc3ccc(OCC(=O)O)cc3)c(=O)n2C1c1ccccc1OC` (stereo not drawn), for which the IC50 was > 100 µM (inactive).
Take `Cc1c2c(=O)n(-c3nc4ccccc4s3)nc-2cc(O)n1CCC(C)C`: the 50% inhibitory concentration (IC50) was 40 µM.
Then `CS(=O)(=O)C1=NSC2=NC(=O)/C(=C\c3cccn3-c3cccc(Cl)c3)C(=N)N21`, with 32.1 µM.
Consider `CS(=O)(=O)C1=NSC2=NC(=O)/C(=C\c3cccn3-c3ccc(F)cc3)C(=N)N21`, for which the IC50 is 58.1 µM.
Consider `COc1cccc(C2C(C(=O)Nc3ccccc3)=C(C)N=c3sc(=Cc4ccc(OCC(=O)O)cc4)c(=O)n32)c1` (stereo not drawn), for which the IC50 is > 100 µM (inactive).
For the molecule `O=C(O)c1ccc(C2Nc3ccc(S(=O)(=O)Nc4cc(Cl)ccc4Cl)cc3C3C=CCC32)cc1` (stereo not drawn), the IC50 is 36.8 µM.
For the molecule `CCOc1ccc(-n2cccc2/C=C2/C(=N)N3C(=NC2=O)SN=C3S(C)(=O)=O)cc1`, the half-inhibitory concentration (IC50) was 99.9 µM.
Consider `COc1ccc(-n2cccc2/C=C2/C(=N)N3C(=NC2=O)SN=C3S(C)(=O)=O)cc1Cl`, for which the IC50 was > 100 µM (inactive).
Then `Cc1c2c(=O)n(-c3nc4ccccc4s3)nc-2cc(O)n1Cc1cccnc1`, with > 100 µM (inactive).
As to `CS(=O)(=O)C1=NSC2=NC(=O)/C(=C\c3cccn3-c3cc(Cl)cc(Cl)c3)C(=N)N21`, the IC50 is > 100 µM (inactive).
On to `COc1ccccc1Cn1c(O)cc2nn(-c3nc4ccccc4s3)c(=O)c-2c1C`, for which the 50% inhibitory concentration (IC50) was 42.2 µM.
On to `O=C(O)CCCN1C(=O)/C(=C\c2ccc(-c3ccc(Cl)cc3)o2)SC1=S`, for which the IC50 was 25.2 µM.
For the molecule `COc1ccc(Cn2c(O)cc3nn(-c4nc5ccccc5s4)c(=O)c-3c2C)cc1`, the half-maximal inhibitory concentration (IC50) is 49.2 µM.
Then `Cc1c2c(=O)n(-c3nc4ccccc4s3)nc-2cc(O)n1CCc1cccs1`, with > 100 µM (inactive); and `CCOC(=O)C1=C(C)N=c2s/c(=C\c3ccc(OCC(=O)O)cc3)c(=O)n2C1c1ccc(OC)c(OCC)c1` (stereo not drawn), with 27.7 µM; and `O=C(O)CCC(C(=O)O)N1C(=O)/C(=C\c2ccco2)SC1=S` (stereo not drawn), with > 100 µM (inactive).
Take `COc1ccc(-c2ccc(/C=C3\SC(=S)N(CCCC(=O)O)C3=O)o2)cc1`: the IC50 is 1.66 µM.
Take `COc1ccc(CCn2c(O)cc3nn(-c4nc5ccccc5s4)c(=O)c-3c2C)cc1`: the IC50 was 35.9 µM.
As for `CCOC(=O)C1=C(C)N=c2sc(=Cc3ccc(OCC(=O)O)cc3)c(=O)n2C1c1ccc(OC)cc1OC` (stereo not drawn), the figure is > 100 µM (inactive).
Regarding `O=C(O)CCCN1C(=O)/C(=C/c2ccc(-c3cccc(C(F)(F)F)c3)o2)SC1=S`, the IC50 was > 100 µM (inactive).
As for `CCOC(=O)C1=C(c2ccccc2)N=c2s/c(=C\c3ccc(OCC(=O)O)cc3)c(=O)n2C1c1cccc(OC)c1` (stereo not drawn), the IC50 is 23.3 µM.
As for `CCOC(=O)C1=C(C)N=c2s/c(=C\c3ccc(OCC(=O)O)cc3)c(=O)n2C1c1ccc(Cl)cc1` (stereo not drawn), the 50% inhibitory concentration (IC50) was 50 µM.
For the molecule `O=C(O)c1ccc([C@@H]2Nc3ccc(S(=O)(=O)Nc4cccc5ccccc45)cc3[C@@H]3C=CC[C@@H]32)cc1`, the IC50 is 39.4 µM.
Regarding `CCOC(=O)C1=C(C)N=c2sc(=Cc3ccc(OCC(=O)O)cc3)c(=O)n2C1c1ccc(F)cc1` (stereo not drawn), the half-maximal inhibitory concentration (IC50) was 77.1 µM.
In the case of `CS(=O)(=O)C1=NSC2=NC(=O)/C(=C\c3cccn3-c3ccc(Br)cc3)C(=N)N21`, the IC50 was 25.2 µM.
For the molecule `CC1=C(C(=O)OC(C)C)C(c2ccc(Cl)cc2)n2c(s/c(=C\c3ccc(OCC(=O)O)cc3)c2=O)=N1` (stereo not drawn), the IC50 was 48.4 µM.
As for `COc1cccc(-n2cccc2/C=C2/C(=N)N3C(=NC2=O)SN=C3S(C)(=O)=O)c1`, the figure is > 100 µM (inactive); as for `Cc1c2c(=O)n(-c3nc4ccccc4s3)nc-2cc(O)n1Cc1ccccc1Cl`, 29.5 µM; as for `O=C(O)CCCN1C(=O)/C(=C\c2ccc(-c3ccc(F)cc3)o2)SC1=S`, 3.86 µM.
In the case of `CCc1ccc(-n2cccc2/C=C2/C(=N)N3C(=NC2=O)SN=C3S(C)(=O)=O)cc1`, the IC50 is 46 µM.
On to `CS(=O)(=O)C1=NSC2=NC(=O)/C(=C\c3cccn3-c3ccc(Cl)c(Cl)c3)C(=N)N21`, for which the IC50 was 44.5 µM.
For the molecule `Cc1ccc(-n2cccc2/C=C2/C(=N)N3C(=NC2=O)SN=C3S(C)(=O)=O)cc1C`, the IC50 is 21.4 µM.
As for `CCOC(=O)C1=C(C)N=c2sc(=Cc3ccc(OCC(=O)O)cc3)c(=O)n2C1c1cc(OC)c(OC)c(OC)c1` (stereo not drawn), the IC50 is > 100 µM (inactive).
With `COc1ccccc1NS(=O)(=O)c1ccc2c(c1)C1C=CCC1C(c1ccc(C(=O)O)cc1)N2` (stereo not drawn), the IC50 was 18.4 µM.
As for `Cc1c2c(=O)n(-c3nc4ccccc4s3)nc-2cc(O)n1Cc1cccs1`, the IC50 was 50.1 µM.
As to `CS(=O)(=O)C1=NSC2=NC(=O)/C(=C\c3cccn3-c3cccc(C(F)(F)F)c3)C(=N)N21`, the IC50 is > 100 µM (inactive).
On to `O=C(O)CCCN1C(=O)/C(=C\c2ccc(-c3cccc(Cl)c3)o2)SC1=S`, for which the half-inhibitory concentration (IC50) was 31.8 µM.
As for `O=C(O)CCCN1C(=O)/C(=C/c2ccc(-c3ccc(Cl)c(Cl)c3)o2)SC1=S`, the figure is 2.1 µM; as for `O=C(O)CCCN1C(=O)/C(=C\c2ccc(-c3ccc(Br)cc3)o2)SC1=S`, 0.47 µM.
As for `Cc1c2c(=O)n(-c3nc4ccccc4s3)nc-2cc(O)n1C1CC1`, the figure is 60.4 µM; as for `CS(=O)(=O)C1=NSC2=NC(=O)/C(=C\c3cccn3-c3cccc(F)c3)C(=N)N21`, 62.7 µM; as for `Nc1sc2ccccc2[n+]1Cc1ccc(C(=O)O)cc1`, > 100 µM (inactive).
Then `Cc1ccc(-c2ccc(/C=C3\SC(=S)N(CCCC(=O)O)C3=O)o2)cc1`, with 4.6 µM; and `CCOC(=O)C1=C(C)N=c2sc(=Cc3ccc(OCC(=O)O)cc3)c(=O)n2C1c1ccccc1` (stereo not drawn), with > 100 µM (inactive); and `Cc1c2c(=O)n(-c3nc4ccccc4s3)nc-2cc(O)n1Cc1ccncc1`, with > 100 µM (inactive).

The IC50 is the concentration that inhibits the measured activity by half.
